In ChEMBL document CHEMBL1153858, “Application of phosphonyl carbanions to highly regioselective synthesis of some diazaphospholes and pyrazolinyl phosphonates” (2009):

Key:
Assay type in all cases: functional
[1] = system: Klebsiella pneumoniae; assay: Antimicrobial activity against Klebsiella pneumoniae
[2] = system: Staphylococcus aureus; assay: Antimicrobial activity against Staphylococcus aureus assessed as activity index
[3] = system: Aspergillus flavus; assay: Antimicrobial activity against Aspergillus flavus
[4] = system: Penicillium chrysogenum; assay: Antimicrobial activity against Penicillium chrysogenum
[5] = system: Aspergillus niger; assay: Antimicrobial activity against Aspergillus niger assessed as activity index
[6] = system: Aspergillus niger; assay: Antimicrobial activity against Aspergillus niger
[7] = system: Penicillium chrysogenum; assay: Antimicrobial activity against Penicillium chrysogenum assessed as activity index
[8] = system: Agrobacterium tumefaciens; assay: Antimicrobial activity against Bacillus tumefaciens
[9] = system: Staphylococcus aureus; assay: Antimicrobial activity against Staphylococcus aureus
[10] = system: Agrobacterium tumefaciens; assay: Antimicrobial activity against Bacillus tumefaciens assessed as activity index
[11] = system: Klebsiella pneumoniae; assay: Antimicrobial activity against Klebsiella pneumoniae assessed as activity index
[12] = system: Aspergillus flavus; assay: Antimicrobial activity against Aspergillus flavus assessed as activity index

| Structure (SMILES) | Diameter of inhibition zone [1] | Activity [2] | Diameter of inhibition zone [3] | Diameter of inhibition zone [4] | Activity [5] | Diameter of inhibition zone [6] | Activity [7] | Diameter of inhibition zone [8] | Diameter of inhibition zone [9] | Activity [10] | Activity [11] | Activity [12] |
| --- | --- | --- | --- | --- | --- | --- | --- | --- | --- | --- | --- | --- |
| CCOP1(=O)C(C(=O)OC)=NN(CC)C12C(=O)c1ccccc1C2=O (stereo unspecified) | 10.3 mm | 0.85 | 9 mm | 7.9 mm | 1.18 | 8.4 mm | 1.31 | 12.2 mm | 9 mm | 0.9 | 1.04 | 1.12 |
| CCOP1(=O)C(C#N)=NN(CC)C12C(=O)c1ccccc1C2=O (stereo unspecified) | 12 mm | 0.92 | 11.3 mm | 8 mm | 1.14 | 9 mm | 1 | 10 mm | 10 mm | 0.89 | 1.16 | 1.15 |
| CCOC(=O)C1=NN(CC)C2(C(=O)c3ccccc3C2=O)P1(=O)OCC (stereo unspecified) | 11.3 mm | 0.88 | 9.6 mm | 7.8 mm | 1.23 | 7.4 mm | 1.42 | 11 mm | 8.5 mm | 0.78 | 0.8 | 1.35 |
| CCn1nc(SC)oc2c3ccccc3c(=O)c1=2 | 5.1 mm | 0.26 | 6.2 mm | 5.6 mm | 1.31 | 4.9 mm | 0.54 | 5.6 mm | 5.9 mm | 0.55 | 0.32 | 0.41 |
| CCOP(=O)(OCC)C1=NN(CC)C2(C1=O)C(=O)c1ccccc1C2=O | 8.2 mm | 0.83 | 7.4 mm | 5.9 mm | 0.73 | 6.1 mm | 1.06 | 7.6 mm | 7.6 mm | 0.57 | 0.63 | 0.88 |
| CCOP(=O)(OCC)C1=NN(CC)C2(C1)C(=O)c1ccccc1C2=O | 7.6 mm | 0.61 | 5 mm | 9 mm | 0.66 | 4.3 mm | 0.71 | 9.8 mm | 8 mm | 0.84 | 1 | 0.62 |
| CCOP1(=O)C(SC)=NN(CC)C12C(=O)c1ccccc1C2=O (stereo unspecified) | 10.5 mm | 1.16 | 9.8 mm | 9.2 mm | 1.14 | 8 mm | 1.32 | 12.6 mm | 12.8 mm | 0.92 | 0.81 | 1.36 |
| CCOP(=O)(OCC)C1=C(N)C2(N=N1)C(=O)c1ccccc1C2=O | 6 mm | 52 | 6.3 mm | 5.2 mm | 0.73 | 5.4 mm | 0.71 | 8.4 mm | 7.2 mm | 0.75 | 0.47 | 0.78 |
